Laboratory results taken from patent US9181227B2, “Potent and selective inhibitors of hepatitis C virus” (Cocrystal Pharma, Inc., priority 2010, dated 2015).
Where two headings read alike, the source gives them in different places.

Experiments:
Type in all cases: cell-based
[1] = Cytotoxicity in replicon cells by ΔCt rRNA values; conditions: human, Huh 7 Clone B cells containing HCV replicon RNA
Experimental: (§1) Huh 7 Clone B cells containing HCV Replicon RNA would be seeded in a 96-well plate at 5000 cells/well, and the compounds tested at 10 μM in triplicate immediately after seeding. Following five days incubation (37° C., 5% CO2), total cellular RNA was isolated by using versaGene RNA purification kit from Gentra. Replicon RNA and an internal control (TaqMan rRNA control reagents, Applied Biosystems) were amplified in a single step multiplex Real Time RT-PCR Assay. The antiviral effectiveness of the compounds was calculated by subtracting the threshold RT-PCR cycle of the test compound from the threshold RT-PCR cycle of the no-drug control (ΔCt HCV). A ΔCt of 3.3 equals a 1-log reduction (equal to 90% less starting material) in Replicon RNA levels. The cytotoxicity of the compounds was also calculated by using the ΔCt rRNA values. 2′-C-Me-C was used as the positive control. To determine EC90 and IC50 values^2, ΔCt: values were first converted into fraction of starting material^3 and then were used to calculate the % inhibition.

human PBM cells = experiment: Cellular toxicity assay, PBM cells; conditions: cytotoxicity IC50, human PBM cells
Experimental: (§2) The toxicity of the compounds was assessed in Vero, human PBM, CEM (human lymphoblastoid), MT-2, and HepG2 cells, as described previously (see Schinazi R. F., Sommadossi J.-P., Saalmann V., Cannon D. L., Xie M.-Y., Hart G. C., Smith G. A. & Hahn E. F. Antimicrob. Agents Chemother. 1990, 34, 1061-67). Cycloheximide was included as positive cytotoxic control, and untreated cells exposed to solvent were included as negative controls. The cytotoxicity IC50 was obtained from the concentration-response curve using the median effective method described previously (see Chou T.-C. & Talalay P. Adv. Enzyme Regul. 1984, 22, 27-55; Belen'kii M. S. & Schinazi R. F. Antiviral Res. 1994, 25, 1-11).

[2] = test system: CEM (human lymphoblastoid) cells; experiment: Cellular toxicity assay, CEM cells; conditions: cytotoxicity IC50, CEM cells
Experimental: as §2

HCV 1b = experiment: HCV Replicon Assay; conditions: Hepatitis C virus
Experimental: as §1
• 1. Stuyver L et al., Ribonucleoside analogue that blocks replication or bovine viral diarrhea and hepatitis C viruses in culture. Antimicrob. Agents Chemother. 2003, 47, 244-254. • 2. Reed I J & Muench H, A simple method or estimating fifty percent endpoints. Am. J. Hyg. 27: 497, 1938. • 3.
A series of additional compounds was evaluated using the methods described herein.

Vero cells = experiment: Cellular toxicity assay, Vero cells; conditions: cytotoxicity IC50, Vero cells
Experimental: as §2

[3] = Huh-7, 120 h, read-out: Replicon EC50 (range against HCV 1b)
[4] = 120 h, Huh 7 Clone B cells containing HCV Replicon RNA, five days incubation, read-out: Replicon activity (Median Effective concentration EC50 range against HCV 1b)
[5] = 120 h, Huh 7 Clone B cells containing HCV Replicon RNA, five days incubation, read-out: Replicon EC50 (range against HCV 1b)

Row | SMILES | CC50 at 5 days [1] [nM] | Toxicities PBM (human PBM cells) [µM] | Toxicities CEM [2] [µM] | EC50 (HCV 1b; [3]) [nM] | EC50 (HCV 1b; [4]) [nM] | Toxicities VERO (Vero cells) [µM] | EC50 (HCV 1b; [5]) [nM]
1 | COC(=O)N[C@H](C(=O)N1C[C@@H](n2cc(COC(C)=O)nn2)C[C@H]1c1ncc(-c2ccc(-c3ccc(-c4cnc([C@@H]5C[C@H](n6cc(COC(C)=O)nn6)CN5C(=O)[C@@H](NC(=O)OC)C(C)C)[nH]4)cc3)cc2)[nH]1)C(C)C | > 1000 | 53 | 13.5 | 100 to 999 |  |  | 
2 | C#Cc1ccc(-c2cn(-c3ccc(-c4cnc(C5CCCN5C(=O)[C@@H](NC(=O)OC)C(C)C)[nH]4)cc3)nn2)cc1 (stereo partly shown) |  |  |  |  | 1 to 99 |  | 
3 | COC(=O)N[C@H](C(=O)N1CCC[C@H]1c1ncc(-c2ccc(-c3ccccc3)cc2)[nH]1)C(C)C [Methyl ((S)-1-((S)-2-(5-([1,1′-biphenyl]-4-yl)-1H-imidazol-2-yl)pyrrolidin-1-yl)-3-methyl-1-oxobutan-2-yl)carbamate] |  |  |  |  | 100 to 999 |  | 
4 | COC(=O)N[C@@H](CC(C)C)C(=O)N1CCC[C@H]1c1ncc(-c2ccc(-c3ccccc3)cc2)[nH]1 |  |  |  |  | 100 to 999 |  | 
5 | COC(=O)N[C@H](C(=O)N1C[C@H](n2cc(-c3ccccc3)nn2)C[C@H]1c1ncc(-c2ccc(-c3ccc(-c4cnc([C@@H]5C[C@@H](n6cc(-c7ccccc7)nn6)CN5C(=O)[C@@H](NC(=O)OC)C(C)C)[nH]4)cc3)cc2)[nH]1)C(C)C | > 1000 | > 100 | > 100 |  |  | > 100 | 1 to 99
6 | COC(=O)N[C@H](C(=O)N1C[C@@H](n2cc(C(=O)OC)nn2)C[C@H]1c1ncc(-c2ccc(-c3ccc(-c4cnc([C@@H]5C[C@H](n6cc(C(=O)OC)nn6)CN5C(=O)[C@@H](NC(=O)OC)C(C)C)[nH]4)cc3)cc2)[nH]1)C(C)C | > 1000 | 53 | 13.5 | 100 to 999 |  |  | 
7 | COC(=O)N[C@H](C(=O)N1C[C@H](n2ccnn2)C[C@H]1c1ncc(-c2ccc(-c3ccc(-c4cnc([C@@H]5C[C@@H](n6cc([Si](C)(C)C)nn6)CN5C(=O)[C@@H](NC(=O)OC)C(C)C)[nH]4)cc3)cc2)[nH]1)C(C)C | > 1000 | 3 | 16.2 |  |  | > 100 | 1 to 99
8 | COC(=O)N[C@H](C(=O)N1CCC[C@H]1c1ncc(-c2ccc(-n3cc(-c4ccccc4)nn3)cc2)[nH]1)C(C)C [Methyl ((S)-3-methyl-1-oxo-1-((S)-2-(5-(4-(4-phenyl-1H-1,2,3-triazol-1-yl)phenyl)-1H-imidazol-2-yl)pyrrolidin-1-yl)butan-2-yl)carbamate] |  |  |  |  | 100 to 999 |  | 
9 | COC(=O)N[C@H](C(=O)N1C[C@@H](SC)C[C@H]1c1ncc(-c2ccc(-c3ccc(-c4cnc([C@@H]5C[C@H](SC)CN5C(=O)[C@@H](NC(=O)OC)C(C)C)[nH]4)cc3)cc2)[nH]1)C(C)C | > 1000 | 15.6 | 13.3 |  |  | 10.9 | < 1
10 | COC(=O)N[C@H](C(=O)N1CCC[C@H]1c1ncc(-c2ccc(-n3cc(-c4cncn4C)nn3)cc2)[nH]1)C(C)C |  |  |  |  | 100 to 999 |  | 
11 | COC(=O)N[C@H](C(=O)N1C[C@H](n2cc([Si](C)(C)C)nn2)C[C@H]1c1ncc(-c2ccc(-c3ccc(-c4cnc([C@@H]5C[C@@H](n6cc([Si](C)(C)C)nn6)CN5C(=O)[C@@H](NC(=O)OC)C(C)C)[nH]4)cc3)cc2)[nH]1)C(C)C | > 1000 | > 100 | 25.2 |  |  | > 100 | 1 to 99
12 | COC(=O)N[C@H](C(=O)N1CCC[C@H]1c1ncc(-c2ccc(N=[N+]=[N-])cc2)[nH]1)C(C)C |  |  |  |  | 1 to 99 |  | 
